Assay results reported in PMC8657773, “Development of a PROTAC-Based Targeting Strategy Provides a Mechanistically Unique Mode of Anti-Cytomegalovirus Activity” (International Journal of Molecular Sciences, 2021).
Values joined by “and” are separate entries in the source; they are usually repeats but may differ in a detail not shown here. Equal values may be shown once. Read-outs that look alike come from different tables or passages of the source.

Experiments:
[1] = tested on: VZV Oka-GFP; type: cell-based, varicella zoster virus; details: HFF, 1× TCID25^7d, 6 d p.i.
[2] = tested on: SARS-CoV-2 d6-YFP; test: microbe, parasite or virus in culture; type: cell-based
[3] = tested on: MCMV Smith-GFP; test: microbe, parasite or virus in culture; type: cell-based, murine CMV; details: for EC50: Human betaherpesvirus 5, in Mus musculus, 120 h, MCMV Smith-GFP, 5 d p.i.
[4] = tested on: SARS-CoV-2 d6-YFP; set-up: method as in PMID 34578109; details: human Caco-2 cells, previously demonstrated; ref [41]; cited from earlier work
[5] = tested on: HFFs; test: in vitro; type: cell-based; details: human
Procedure: (§1) Drug induced cytotoxicity in HFF and other cell types was measured as a reduction of cell viability determined by Neutral Red uptake assay (NRA), as described previously. Briefly, compound treated cells were incubated with a final concentration of 40 μg/mL Neutral Red (Sigma Aldrich, St. Louis, MO, USA) for 1 to 4 h, depending on the cell type. The amount of incorporated Neutral Red was released from the cells by incubation with destaining solution (50% ethanol, 49% H2O, 1% acetic acid), and subsequently quantitated in a microplate reader by fluorescence measurement using 560/630 nm for excitation/emission, respectively. For determination of lactate dehydrogenase release into the cell culture supernatant, the CytoTox 96® Non-Radioactive Cytotoxicity Assay (Promega, Madison, WI, USA) was used according to the manufacturer’s protocol. Values were normalized to maximal release of LDH by measuring lysates of solvent-treated control cells. Cell viability was defined as the absence of cytotoxicity.

[6] = in vitro; type: cell-based
Procedure: as §1

[7] = tested on: HAdV-2; test: HAdV-2 plaque formation assay in HFFs; type: cell-based, human adenovirus type 2; details: for EC50: HAdV-2, HFF, 10 d p.i.; for impact on HAdV-2 plaque formation: HFFs, at concentrations (0.03 µM) that produced anti-HCMV activity
[8] = tested on: HCMV AD169-GFP; test: microbe, parasite or virus in culture; type: cell-based, Human cytomegalovirus
[9] = tested on: HCMV AD169-GFP; set-up: method as in PMID 30452929, PMID 25624324; details: anti-HCMV, preceding determination; ref [22],[26]; cited from earlier work
[10] = molecular target: T1, CDK2 (Homo sapiens, UniProt P24941); test: Western blot of CDK levels in HCMV-infected HFFs; type: cell-based; details: HCMV AD169-infected HFFs (MOI 2), THAL-SNS032 treatment, 1 and 3 d p.i.
T1 construct: endogenous in cells; host or cells: primary human foreskin fibroblasts (HFFs), mock- or HCMV AD169-infected
Procedure: (§2) Western blot analyses of infected and mock-infected HFFs were performed as previously described. Antibodies specific for CDK9 (sc-484, Santa Cruz Biotechnology, Dallas, TX, USA), mAb-CDK1 (sc-54, Santa Cruz Biotechnology), pAb CDK2 (Sc-163, Santa Cruz Biotechnology), pAb-CDK7 (sc-723, Santa Cruz Biotechnology), and mAb β-actin (A5441, Sigma Aldrich, St. Louis, MO, USA) were used with an appropriate secondary antibody to detect the respective proteins.

[11] = molecular target: T2, CDK7 (Homo sapiens, UniProt P50613); test: Western blot of CDK levels in HCMV-infected HFFs; type: cell-based; details: HCMV AD169-infected HFFs (MOI 2), THAL-SNS032 treatment, 1 and 3 d p.i.
T2 construct: endogenous in cells; host or cells: primary human foreskin fibroblasts (HFFs), mock- or HCMV AD169-infected
T2 sequence (P50613 whole entry): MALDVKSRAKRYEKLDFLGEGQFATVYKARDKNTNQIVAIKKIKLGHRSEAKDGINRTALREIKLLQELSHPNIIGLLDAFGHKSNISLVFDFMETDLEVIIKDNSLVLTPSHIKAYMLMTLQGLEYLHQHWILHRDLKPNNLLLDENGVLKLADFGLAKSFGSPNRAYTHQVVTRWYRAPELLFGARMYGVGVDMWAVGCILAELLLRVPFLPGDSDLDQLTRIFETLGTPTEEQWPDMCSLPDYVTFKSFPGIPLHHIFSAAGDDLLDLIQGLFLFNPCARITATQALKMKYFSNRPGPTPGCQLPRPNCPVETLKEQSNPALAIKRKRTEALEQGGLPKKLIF
Procedure: as §2

[12] = molecular target: T3, CDK9 (Homo sapiens, UniProt P50750); test: Western blot of CDK levels in HCMV-infected HFFs; type: cell-based; details: HCMV AD169-infected HFFs (MOI 2)
T3 construct: endogenous in cells; host or cells: primary human foreskin fibroblasts (HFFs), mock- or HCMV AD169-infected
T3 sequence (P50750 whole entry): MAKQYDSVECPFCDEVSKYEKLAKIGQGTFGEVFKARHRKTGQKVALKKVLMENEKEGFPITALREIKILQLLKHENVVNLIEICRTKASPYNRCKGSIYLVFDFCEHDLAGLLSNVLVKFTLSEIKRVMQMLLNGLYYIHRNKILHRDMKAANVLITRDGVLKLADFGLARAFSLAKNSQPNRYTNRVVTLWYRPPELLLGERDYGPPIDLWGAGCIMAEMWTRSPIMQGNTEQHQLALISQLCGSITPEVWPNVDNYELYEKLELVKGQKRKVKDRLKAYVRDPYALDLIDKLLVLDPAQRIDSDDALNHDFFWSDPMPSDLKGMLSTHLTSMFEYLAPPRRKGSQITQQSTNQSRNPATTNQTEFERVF
Procedure: as §2

[13] = molecular target: T4, CDK1 (Homo sapiens, UniProt P06493); test: Western blot of CDK levels in HCMV-infected HFFs; type: cell-based; details: HCMV AD169-infected HFFs (MOI 2), THAL-SNS032 treatment, 1 and 3 d p.i.
T4 construct: endogenous in cells; host or cells: primary human foreskin fibroblasts (HFFs), mock- or HCMV AD169-infected
T4 sequence (P06493 whole entry): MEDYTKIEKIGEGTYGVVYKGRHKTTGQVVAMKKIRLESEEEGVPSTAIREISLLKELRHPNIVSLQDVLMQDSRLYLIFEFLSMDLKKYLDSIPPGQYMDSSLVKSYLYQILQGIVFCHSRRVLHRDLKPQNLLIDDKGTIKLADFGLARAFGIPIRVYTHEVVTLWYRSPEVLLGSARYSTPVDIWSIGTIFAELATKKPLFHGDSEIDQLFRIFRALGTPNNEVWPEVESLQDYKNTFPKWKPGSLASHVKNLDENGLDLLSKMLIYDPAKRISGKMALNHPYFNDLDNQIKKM
Procedure: as §2

[14] = tested on: HCMV Merlin; test: HCMV-specific qPCR replication assay in TEV-1 trophoblast cells; type: cell-based, Human cytomegalovirus
[15] = Neutral Red uptake assay, uninfected MRC-5 cells; type: cell-based; details: human
Procedure: as §1

[16] = tested on: TEV-1 trophoblast cells; test: Transwell migration assay, HCMV AD169-infected TEV-1 trophoblasts; type: cell-based, human; details: HCMV AD169-infected TEV-1 (MOI 2)
[17] = tested on: ZIKV PRVABC59; test: ZIKV qPCR replication assay in Vero cells; type: cell-based, Zika virus; details: for EC50: ZIKV PRVABC59, Vero
[18] = tested on: MEFs; test: in vitro; type: cell-based; details: mouse, 5 d
Procedure: as §1

[19] = Cell viability of Vero cells; type: cell-based; details: African green monkey
Procedure: as §1

[20] = molecular target: T1, CDK2; test: Western blot of CDK degradation in HFFs; type: cell-based; details: uninfected HFFs
Procedure: as §2

[21] = molecular target: T2, CDK7; test: Western blot of CDK degradation in HFFs; type: cell-based; details: uninfected HFFs
Procedure: as §2

[22] = molecular target: T3, CDK9; test: Western blot of CDK degradation in HFFs; type: cell-based; details: uninfected HFFs
Procedure: as §2

[23] = molecular target: T4, CDK1; test: Western blot of CDK degradation in HFFs; type: cell-based; details: uninfected HFFs, up to 100 nM, up to 24 h
Procedure: as §2

[24] = tested on: HCMV Merlin; test: HCMV-specific qPCR replication assay in MRC-5 cells; type: cell-based, Human cytomegalovirus
[25] = Severe acute respiratory syndrome coronavirus 2, Caco-2
[26] = Severe acute respiratory syndrome coronavirus 2, Caco-2, 30 h
[27] = MEF, 1× TCID25^5d, Table 1 summary
[28] = Human betaherpesvirus 5, AD169, 168 h
[29] = Human betaherpesvirus 5, AD169, HFF-1, 168 h
[30] = washout after 24 h treatment, initial levels reconstituted after 24 h

For `CC(C)(C)c1cnc(CSc2cnc(NC(=O)C3CCNCC3)s2)o1` [SNS032], the EC50 [1] was “inactive”, the EC50 [2] was 180 ± 30 nM and the SI ([2]; Caco-2, conventional treatment) was 340. It also gave an SI ([2]; Caco-2, only pretreatment) of 397, an EC50 [2, 25] of 150 ± 30 nM and an EC50 [2, 26] of 175 ± 250 nM. It also gave an EC50 [3, 27] of 290 ± 50 nM, an SI ([3]; MCMV/MEF, Figure 6 experiment) of 3.5 and an SI ([3]; MCMV/MEF, Table 1 summary) of 3.5. For the same molecule, the “impairment of SARS-CoV-2 replication” value [4] was “effective”, the CC50 [5] was 220 ± 40 nM and the CC50 at 48 h ([6]; human) was 59500 ± 7000 nM. It also gave a CC50 ([6]; human, CC50) of 240 ± 22 nM, a CC50 ([6]; mouse, CC50) of 1030 ± 50 nM and a CC50 at 5 d ([6]; mouse, CC50) of roughly 1000 nM. For the same molecule, the EC50 [7] was “inactive”, the “impact on HAdV-2 plaque formation” value [7] was “none of the drugs produced a measurable impact” and the SI ([8]; HCMV AD169-GFP/HFF, Table 1 summary) was 2.0. It also gave an SI ([8]; HCMV AD169-GFP/HFF, representative experiment (Figure 3)) of 2.3, an EC50 [8, 28] of 105 ± 4 nM and an EC50 [8, 29] of 110 ± 20 nM.
For `O=C1Cc2c([nH]c3ccc([N+](=O)[O-])cc23)-c2ccccc2N1` [R25/alsterpaullone, alsterpaullone], the “impairment of SARS-CoV-2 replication” value [4] is listed as “effective”.
In the case of `CC(C)c1cnn2c(NCc3ccccc3-n3cccn3)nc(OC3CCCNC3)nc12` (stereo not shown) [LDC4297], the “impairment of SARS-CoV-2 replication” value [4] is given as “inactive” and the EC50 [9] is given as 30 nM.
For `CC(C)(C)c1cnc(CSc2cnc(NC(=O)C3CCN(CC(=O)NCCOCCOCCOCCNc4cccc5c4C(=O)N(C4CCC(=O)NC4=O)C5=O)CC3)s2)o1` (stereo not shown) [THAL-SNS032], the EC50 [1] was “inactive”, the CDK2 protein level [10] was “markedly reduced at 1 d p.i. and completely lost at 3 d p.i” and the CDK7 protein level [11] was “markedly reduced at 1 d p.i. and completely lost at 3 d p.i”. For the same molecule, the CDK9 protein level ([12]; 1 nM, 1 and 3 d p.i.) was “partial reduction”, the CDK9 protein level ([12]; 10 nM, 3 h p.i.) was “sufficient to deplete CDK9 levels” and the CDK1 protein level [13] was “markedly reduced at 1 d p.i. and completely lost at 3 d p.i”. The SI [14] was 53.7 and 54, the EC50 ([14]; Human betaherpesvirus 5, 168 h, HCMV Merlin, TEV-1, 7 d p.i.) was 75 nM and the CC50 [15] was 4650 nM. The trophoblast migration ([16]; 0.5 µM, 21 h migration) was “almost completely abolished trophoblast migration”, the “effect on ZIKV replication” value ([17]; Vero cells, concentrations up to 10 µM) was “did not affect virus replication” and the EC50 ([17]; MOI 0.02, 1 d p.i.) was “inactive”. The EC50 ([17]; MOI 0.02, 2 d p.i.) was “inactive”, the EC50 ([17]; MOI 0.02, 3 d p.i.) was “inactive” and the EC50 ([17]; MOI 0.02, 4 d p.i.) was “inactive”. The EC50 [2] was 150 ± 20 nM, the “EC50 Ratio SNS032/ THAL-SNS032” value [2] was 1.6 and 1.7 and the SI [2] was 592. For the same molecule, the EC50 [2, 25] was 146 ± 22 nM, the EC50 [2, 26] was 110 ± 20 nM and the “EC50 Ratio SNS032/ THAL-SNS032” value [3] was 1.4. For the same molecule, the SI [3] was 4.7, the EC50 [3, 27] was 210 ± 90 nM and the EC50 ([3]; MEFs, Figure 6 experiment) was 220 ± 80 nM. For the same molecule, the CC50 [18] was 960 ± 120 nM, the CC50 ([6]; human) was 4030 nM and the CC50 at 48 h ([6]; human) was 64900 ± 16200 nM. The CC50 ([6]; human, CC50) was 125 ± 14 nM, the CC50 ([6]; mouse, CC50) was 1000 ± 220 nM and the CC50 at 5 d ([6]; mouse, CC50) was roughly 1000 nM. The CC50 at 4 d [19] was 43900 nM, the EC50 [7] was “inactive” and the “impact on HAdV-2 plaque formation” value [7] was “none of the drugs produced a measurable impact”. The CDK2 protein level ([20]; 100 nM, 6 to 24 h) was “decline in protein levels”, the “time reduced CDK2 level was maintained after washout” value [20, 30] was 6 h and the “CDK7 protein level (larger variety)” value ([21]; 100 nM, 6 to 24 h) was “decline in protein levels”. The “time reduced CDK7 level was maintained after washout” value [21, 30] was 6 h, the CDK9 protein level ([22]; 10 nM, beginning with 6 h) was “markedly reduced” and the CDK9 protein level ([22]; 100 nM, after 40 min) was “decreased protein levels”. For the same molecule, the “time reduced CDK9 level was maintained after washout” value [22, 30] was 6 h, the CDK1 protein level [23] was “apparently not affected” and the EC50 ([24]; Human betaherpesvirus 5, MRC5, 96 h, HCMV Merlin, MRC-5, MOI 0.02, 4 d p.i., read-out: EC50) was 370 nM. For the same molecule, the EC50 ([24]; Human betaherpesvirus 5, MRC5, 96 h, HCMV Merlin, MRC-5, MOI 0.2, 4 d p.i., read-out: EC50) was 1770 nM, the EC50 ([24]; Human betaherpesvirus 5, MRC5, 168 h, HCMV Merlin, MRC-5, MOI 0.002, 7 d p.i., read-out: EC50) was 570 nM and the EC50 ([24]; Human betaherpesvirus 5, MRC5, 168 h, HCMV Merlin, MRC-5, MOI 0.02, 7 d p.i., read-out: EC50) was 400 nM. It also gave an EC50 ([24]; Human betaherpesvirus 5, MRC5, 168 h, HCMV Merlin, MRC-5, MOI 0.2, 7 d p.i., read-out: EC50) of 3070 nM, an EC50 ([24]; Human betaherpesvirus 5, MRC5, 240 h, HCMV Merlin, MRC-5, MOI 0.002, 10 d p.i., read-out: EC50) of 940 nM and an EC50 ([24]; Human betaherpesvirus 5, MRC5, MRC-5, lower MOIs of 0.02 and 0.002, 4 to 10 days, read-out: EC50 values (range)) of 340 to 940 nM. The “EC50 Ratio SNS032/ THAL-SNS032” value [8] was 3.7, the SI [8] was 5.7 and the EC50 [8, 28] was 25 ± 1 nM. It also gave an EC50 [8, 29] of 30 ± 10 nM and an EC50 ([8]; Human betaherpesvirus 5, AD169, read-out: EC50 values (range) for HCMV) of 30 to 3070 nM.
Work on `Cc1c(Br)c(Br)c2c3c1nc(N1CCNCC1)n3CCC2` [SEL120] yielded an EC50 ([8]; Human betaherpesvirus 5, AD169) of 120 ± 70 nM.
In the case of `Nc1nc(O)c2ncn(COC(CO)CO)c2n1` [ganciclovir], the “resolving HCMV inhibition of trophoblast migration” value ([16]; 10 µM, vs infected untreated cells (p = 0.999)) is reported as “no effect”.
